Test results reported in patent US9078444B2, “Isothiazoline derivatives as insecticidal compounds” (Syngenta Participations AG, priority 2011, dated 2015).

Tests used:
Assay type in all cases: in vivo
Tetranychus urticae = Tetranychus urticae (two-spotted spider mite) bean leaf disc test; conditions: foliar, 192 h, 200 ppm sprayed on bean leaf discs, mixed ages, egg, larval and adult mortality 8 days later
Excerpt: Tetranychus urticae (Two-Spotted Spider Mite): Bean leaf discs on agar in 24-well microtiter plates were sprayed with test solutions at an application rate of 200 ppm. After drying, the leaf discs are infested with mite populations of mixed ages. 8 days later, discs are checked for egg mortality, larval mortality, and adult mortality.

Heliothis virescens = Heliothis virescens (tobacco budworm) egg test on artificial diet; conditions: 96 h, 200 ppm (concentration in well 18 ppm), eggs on artificial diet, egg mortality, larval mortality, growth regulation after 4 days
Experimental: Heliothis virescens (Tobacco Budworm): Eggs (0-24 h old) were placed in 24-well microtiter plate on artificial diet and treated with test solutions at an application rate of 200 ppm (concentration in well 18 ppm) by pipetting. After an incubation period of 4 days, samples were checked for egg mortality, larval mortality, and growth regulation.

Thrips tabaci = Thrips tabaci (onion thrips) sunflower leaf disc test; conditions: foliar, 168 h, 200 ppm sprayed on sunflower leaf discs, mixed ages, mortality after 7 days
Experimental: Thrips tabaci (Onion Thrips): Sunflower leaf discs were placed on agar in a 24-well microtiter plate and sprayed with test solutions at an application rate of 200 ppm. After drying, the leaf discs were infested with a thrips population of mixed ages. After an incubation period of 7 days, samples were checked for mortality.

Plutella xylostella = Plutella xylostella (diamond back moth) artificial diet test; conditions: 144 h, 200 ppm (concentration in well 18 ppm), L2 larvae, larval mortality and growth regulation after 6 days
Experimental: (§1) Plutella xylostella (Diamond Back Moth): 24-well microtiter plate (MTP) with artificial diet was treated with test solutions at an application rate of 200 ppm (concentration in well 18 ppm) by pipetting. After drying, the MTPs were infested with L2 larvae (7-12 per well). After an incubation period of 6 days, samples were checked for larval mortality and growth regulation.

Diabrotica balteata = Diabrotica balteata (corn root worm) artificial diet test; conditions: 120 h, 200 ppm (concentration in well 18 ppm), L2 larvae, larval mortality and growth regulation after 5 days
Experimental: as §1, with “Diabrotica balteata (Corn Root Worm): A” for “Plutella xylostella (Diamond Back Moth):”, “(6-10” for “(7-12”, “5” for “6”

Spodoptera littoralis = Spodoptera littoralis (Egyptian cotton leafworm) cotton leaf disc test; conditions: foliar, 72 h, 200 ppm sprayed on cotton leaf discs, mortality, feeding behavior, growth regulation 3 days after treatment
Experimental: Spodoptera littoralis (Egyptian Cotton Leafworm): Cotton leaf discs were placed on agar in a 24-well microtiter plate and sprayed with test solutions at an application rate of 200 ppm. After drying, the leaf discs were infested with […]. The samples were checked for mortality, feeding behavior, and growth regulation 3 days after treatment (DAT).

Measured: pest or weed control at 200 ppm

Cc1cc(C2=NSC(c3cc(Cl)cc(Cl)c3)(C(F)(F)F)C2)ccc1C(=O)NCC(F)(F)F (stereo not shown) [Compound A03]
≥ 80%: all assays above

CCNC(=O)c1ccc(C2=NSC(c3cc(Cl)cc(Cl)c3)(C(F)(F)F)C2)cc1C (stereo not shown) [Compound A04]
≥ 80%: all assays above

CCCCNC(=O)c1ccc(C2=NSC(c3cc(Cl)cc(Cl)c3)(C(F)(F)F)C2)cc1C (stereo not shown) [Compound A05]
≥ 80%: all assays above

COCC(C)NC(=O)c1ccc(C2=NSC(c3cc(Cl)cc(Cl)c3)(C(F)(F)F)C2)cc1C (stereo not shown) [Compound A06]
≥ 80%: all assays above

Cc1cc(C2=NSC(c3cc(Cl)cc(Cl)c3)(C(F)(F)F)C2)ccc1C(=O)NCCC(F)(F)F (stereo not shown) [Compound A07]
≥ 80%: all assays above

CCC(C)NC(=O)c1ccc(C2=NSC(c3cc(Cl)cc(Cl)c3)(C(F)(F)F)C2)cc1C (stereo not shown) [Compound A08]
≥ 80%: all assays above

Cc1cc(C2=NSC(c3cc(Cl)cc(Cl)c3)(C(F)(F)F)C2)ccc1C(=O)NCC1CCCO1 (stereo not shown) [Compound A09]
≥ 80%: all assays above

Cc1cc(C2=NSC(c3cc(Cl)cc(Cl)c3)(C(F)(F)F)C2)ccc1C(=O)NCc1ccccc1 (stereo not shown) [Compound A10]
≥ 80%: all assays above

Cc1cc(C2=NSC(c3cc(Cl)cc(Cl)c3)(C(F)(F)F)C2)ccc1C(=O)NCc1ccccc1F (stereo not shown) [Compound A11]
≥ 80%: all assays above

COc1ccc(CNC(=O)c2ccc(C3=NSC(c4cc(Cl)cc(Cl)c4)(C(F)(F)F)C3)cc2C)cc1 (stereo not shown) [Compound A13]
≥ 80%: all assays above

Cc1cc(C2=NSC(c3cc(Cl)cc(Cl)c3)(C(F)(F)F)C2)ccc1C(=O)NCc1ccc(Cl)nc1 (stereo not shown) [Compound A14]
≥ 80%: all assays above

Cc1cc(C2=NSC(c3cc(Cl)cc(Cl)c3)(C(F)(F)F)C2)ccc1C(=O)Nc1cccc(F)c1 (stereo not shown) [Compound A15]
≥ 80%: all assays above

Cc1cc(NC(=O)c2ccc(C3=NSC(c4cc(Cl)cc(Cl)c4)(C(F)(F)F)C3)cc2C)n(C)n1 (stereo not shown) [Compound A17]
≥ 80%: all assays above

Cc1csc(NC(=O)c2ccc(C3=NSC(c4cc(Cl)cc(Cl)c4)(C(F)(F)F)C3)cc2C)n1 (stereo not shown) [Compound A18]
≥ 80%: all assays above

CSCC(C)(C)NC(=O)c1ccc(C2=NSC(c3cc(Cl)cc(Cl)c3)(C(F)(F)F)C2)cc1C (stereo not shown) [Compound A20]
not listed: Thrips tabaci
≥ 80%: all other assays above

Cc1cc(C2=NSC(c3cc(Cl)cc(Cl)c3)(C(F)(F)F)C2)ccc1C(=O)NC1CCSC1=O (stereo not shown) [Compound A37]
not listed: Thrips tabaci
≥ 80%: all other assays above

Cc1cc(C2=NSC(c3cc(Cl)cc(Cl)c3)(C(F)(F)F)C2)ccc1C(=O)Nc1cc[n+]([O-])cc1 (stereo not shown) [Compound A41]
≥ 80%: Heliothis virescens | Plutella xylostella | Spodoptera littoralis

Cc1cc(C2=NSC(c3cc(Cl)cc(Cl)c3)(C(F)(F)F)C2)ccc1C(=O)NC1=NCCS1 (stereo not shown) [Compound A44]
≥ 80%: Heliothis virescens | Plutella xylostella | Diabrotica balteata | Spodoptera littoralis

Cc1cc(C)nc(NC(=O)c2ccc(C3=NSC(c4cc(Cl)cc(Cl)c4)(C(F)(F)F)C3)cc2C)n1 (stereo not shown) [Compound A47]
≥ 80%: Spodoptera littoralis

CCN(CC)C(=O)c1cccc(NC(=O)c2ccc(C3=NSC(c4cc(Cl)cc(Cl)c4)(C(F)(F)F)C3)cc2C)n1 (stereo not shown) [Compound A49]
not listed: Thrips tabaci
≥ 80%: all other assays above

Cc1cc(C2=NSC(c3cc(Cl)cc(Cl)c3)(C(F)(F)F)C2)ccc1C(=O)Nc1ccccn1 (stereo not shown) [Compound A56]
not listed: Tetranychus urticae
≥ 80%: all other assays above

Cc1cc(C2=NSC(c3cc(Cl)cc(Cl)c3)(C(F)(F)F)C2)ccc1C(=O)NCc1ccc(C(F)(F)F)cc1 (stereo not shown) [Compound A57]
not listed: Thrips tabaci
≥ 80%: all other assays above

Cc1cc(C2=NSC(c3cc(Cl)cc(Cl)c3)(C(F)(F)F)C2)ccc1C(=O)Nc1ccc(C(F)(F)F)cc1 (stereo not shown) [Compound A58]
not listed: Tetranychus urticae
≥ 80%: all other assays above

Cc1ccc(NC(=O)c2ccc(C3=NSC(c4cc(Cl)cc(Cl)c4)(C(F)(F)F)C3)cc2C)cc1 (stereo not shown) [Compound A64]
not listed: Tetranychus urticae
≥ 80%: all other assays above
